Values after ≈ are worked out from the molar mass of the structure shown. Like-named read-outs stand apart in the source and are kept apart here.
Columns and labels:
NIS = molecular target: T1, NIS (Rattus norvegicus, UniProt Q63008); assay: NIS-inhibition assay (iodide uptake, Sandell–Kolthoff reaction) on FRTL-5; format: cell-based; details: mean ± SD, ≥ 3 independent experiments; 2 h exposure; SK reaction
T1 construct: the endogenously NIS-expressing rat FRTL-5 cell line; host or cells: FRTL-5 (CVCL_0265)
T1 sequence (Q63008 1-618): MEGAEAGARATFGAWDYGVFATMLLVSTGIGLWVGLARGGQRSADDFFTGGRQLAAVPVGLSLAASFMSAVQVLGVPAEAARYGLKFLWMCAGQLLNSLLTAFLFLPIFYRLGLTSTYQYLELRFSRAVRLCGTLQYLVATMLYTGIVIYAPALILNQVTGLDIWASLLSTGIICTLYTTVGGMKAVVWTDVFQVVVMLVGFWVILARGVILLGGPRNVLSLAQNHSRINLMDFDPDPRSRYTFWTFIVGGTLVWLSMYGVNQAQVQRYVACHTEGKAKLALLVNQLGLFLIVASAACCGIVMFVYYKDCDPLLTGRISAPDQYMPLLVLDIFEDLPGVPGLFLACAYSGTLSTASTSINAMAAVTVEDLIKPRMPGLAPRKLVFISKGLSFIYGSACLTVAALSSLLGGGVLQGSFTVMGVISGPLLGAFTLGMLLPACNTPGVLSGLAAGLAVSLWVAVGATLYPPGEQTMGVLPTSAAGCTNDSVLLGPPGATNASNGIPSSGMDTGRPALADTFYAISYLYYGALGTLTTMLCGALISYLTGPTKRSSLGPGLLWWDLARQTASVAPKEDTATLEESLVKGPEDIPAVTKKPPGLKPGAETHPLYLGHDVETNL

[1] = parameters: method as in PubChem https://pubchem.ncbi.nlm.nih.gov/; details: ref PubChem https://pubchem.ncbi.nlm.nih.gov/; cited from earlier work
[2] = parameters: method as in PubChem https://pubchem.ncbi.nlm.nih.gov/; details: ref PubChem https://pubchem.ncbi.nlm.nih.gov/; cited from earlier work; remark: listed apart in the source
FRTL-5 cells = assay: Neutral red uptake viability assay, FRTL-5; details: mean±SD, 2 h exposure
HEK293T NIS C cells = assay: Neutral red uptake viability assay, HEK293T NIS C; details: mean±SD, 2 h exposure
human NIS [3] = molecular target: T2, human NIS (Homo sapiens, UniProt Q92911); assay: Biotransformation (BTS, rat S9)-augmented NIS-inhibition assay, HEK293T NIS02; details: for effect of fully active BTS (W/S9, W/cof) on NIS inhibition versus control setups: two-way ANOVA, p < 0.05; for IC20: three independent experiments
T2 sequence (Q92911 1-643): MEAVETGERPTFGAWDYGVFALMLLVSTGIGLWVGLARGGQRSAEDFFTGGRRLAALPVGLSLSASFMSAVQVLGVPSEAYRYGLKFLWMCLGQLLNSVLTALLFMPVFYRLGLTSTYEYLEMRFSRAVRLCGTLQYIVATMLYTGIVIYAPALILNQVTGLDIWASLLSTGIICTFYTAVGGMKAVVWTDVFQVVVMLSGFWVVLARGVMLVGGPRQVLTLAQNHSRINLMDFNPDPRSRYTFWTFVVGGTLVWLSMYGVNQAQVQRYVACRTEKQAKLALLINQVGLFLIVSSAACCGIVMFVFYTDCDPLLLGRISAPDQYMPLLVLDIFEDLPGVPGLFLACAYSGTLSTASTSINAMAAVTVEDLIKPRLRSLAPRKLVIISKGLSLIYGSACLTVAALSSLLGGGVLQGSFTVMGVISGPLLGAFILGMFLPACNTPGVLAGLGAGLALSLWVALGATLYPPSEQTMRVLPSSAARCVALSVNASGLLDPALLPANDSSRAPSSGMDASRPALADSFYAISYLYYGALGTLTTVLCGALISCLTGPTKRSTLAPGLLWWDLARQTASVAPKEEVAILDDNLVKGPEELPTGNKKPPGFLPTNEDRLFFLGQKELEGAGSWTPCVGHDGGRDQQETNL

human NIS [4] = molecular target: T2, human NIS; assay: NIS-inhibition assay (iodide uptake, Sandell–Kolthoff reaction) on HEK293T NIS 02; format: cell-based; parameters: host or cells: HEK293T (lentiviral transduction, puromycin selection, GFP sorting; lines NIS 02 and NIS C); details: mean ± SD, ≥ 3 independent experiments, 2 h exposure, SK reaction; for IC50: read-out: NIS IC50 HEK293T NIS 02
human NIS [5] = molecular target: T2, human NIS; assay: NIS-inhibition assay (iodide uptake, Sandell–Kolthoff reaction) on HEK293T NIS C; format: cell-based; parameters: host or cells: HEK293T (lentiviral transduction, puromycin selection, GFP sorting; lines NIS 02 and NIS C); details: mean ± SD, ≥ 3 independent experiments; 2 h exposure; SK reaction
human NIS [6] = molecular target: T2, human NIS; parameters: host or cells: HEK293T (lentiviral transduction, puromycin selection, GFP sorting; lines NIS 02 and NIS C); details: hNIS-HEK293T-EPA, RAIU, cited from earlier work
[7] = ref PubChem https://pubchem.ncbi.nlm.nih.gov/; cited from earlier work

SMILES	log Kow [1]	Henry‘s law [2]	NR IC20 FRTL-5 (FRTL-5 cells)	NR IC20 HEK293T NISC (HEK293T NIS C cells)	NIS IC50 HEK293T NIS C (human NIS [5])	NIS IC50 FRTL-5 (NIS)	solubility in water [7] [µg/mL]	NIS IC50 HEK293T NIS 02 (human NIS [4])	other results
Oc1cccc(O)c1 [RSC, Resorcinol]	0.8	9.9x10^-11 atm- m^3/mol	4709.5 ±562 / n.e.	n.e./ n.e.	n.e and n.e./ n.e.				IC50 (NIS): 4710 ± 562 µM; effect of fully active BTS (W/S9, W/cof) on NIS inhibition versus control setups (human NIS [3]): no significant differences were observed; IC50 (human NIS [4]): 4060 ± 2050 µM; Data from literature NIS IC50 (human NIS [6]; ref Wang et al., 2019): n.e.
O=C(c1ccc(O)cc1O)c1ccc(O)cc1O [BP2, 2,2′-4,4′-Tetrahydroxy Benzophenone]		3.6x10^-6 atm- m^3/mol	n.e. / n.e.	n.e./ n.e.	n.e and n.e./ n.e.	n.e and n.e. / n.e.	8821 (≈ 35800 µM)	n.e and n.e./ n.e.	
NC(Cc1cc(I)c(Oc2cc(I)c(O)c(I)c2)c(I)c1)C(=O)O [T4, 3,3′,5,5″-Tetraiodo-L-thyronine]	0.16		n.e. / n.e.	n.e. / n.e.	n.e and n.e. / n.e.	n.e and n.e. / n.e.	0.162 (≈ 0.209 µM)	n.e and n.e. / n.e.	
O=C(O)c1ccccc1O [SA, Salicylic acid]	2.26		n.e. / n.e.	n.e. / n.e.	n.e and n.e. / n.e.	n.e and n.e. / n.e.		n.e and n.e. / n.e.	
N[C@@H](Cc1cc(I)c(Oc2ccc(O)c(I)c2)c(I)c1)C(=O)O [T3, 3,3′,5-Triiodo-L-thyronine]	0.93		n.e. / n.e.	n.e. / n.e.					
S=C1NCCN1 [ETU, Ethylene thiourea]	-0.66	1.4x10^-11 atm- m^3/mol	n.e./ n.e.	n.e./ n.e.	n.e and n.e./ n.e.	n.e and n.e./ n.e.		n.e and n.e./ n.e.	
O=P(Oc1ccccc1)(Oc1ccccc1)Oc1ccccc1 [TPP, Triphenyl phosphate]	4.6	3.3x10^-6 atm- m^3/mol	92.6 ±24.1 / n.e.	n.e. / n.e.	n.e and n.e. / n.e.				IC50 (NIS): 92.6 ± 24.1 µM; IC20 (human NIS [3]; read-out: NIS inhibition IC20 D S9, W/cof, 5 h preincubation with denatured S9 and cofactors): 9.97 ± 3.36 µM; IC20 (human NIS [3]; read-out: NIS inhibition IC20 SM, standard method without preincubation, run in parallel): 7.93 ± 4.47 µM; IC20 (human NIS [3]; read-out: NIS inhibition IC20 W/O S9, W/cof, 5 h preincubation without S9 fraction, with all cofactors): 17.5 ± 7.2 µM; effect of fully active BTS (W/S9, W/cof) on NIS inhibition versus control setups (human NIS [3]): no biotransformation-related effect changes were detected; IC50 (human NIS [4]): 42.8 ± 18.9 µM; IC50 (human NIS [6]; read-out: Data from literature NIS IC50, ref US-EPA, 2024): 50 µM
Cc1cc(NS(=O)(=O)c2ccc(N)cc2)no1 [SMX, Sulfamethoxazole, reference compound]					n.e and n.e. / n.e.	n.e and n.e. / n.e.		n.e and n.e. / n.e.	
CCCc1cc(=O)[nH]c(=S)[nH]1 [PTU, 6-Propylthiouracil, reference compound]		1.1x10^-9 atm- m^3/mol	n.e. / n.e.	n.e. / n.e.	n.e and n.e. / n.e.	n.e and n.e. / n.e.		n.e and n.e. / n.e.	Data from literature NIS IC50 (human NIS [6]; ref Buckalew et al., 2020): n.e.; Data from literature NIS IC50 (human NIS [6]; ref Hallinger et al., 2017): n.e.
CC1=C[C@H]2O[C@@H]3[C@H](O)C[C@](C)([C@@]2(CO)[C@H](O)C1=O)[C@]31CO1 [DON, Deoxynivalenol]	-0.71	2.0x10^-14 atm- m^3/mol					55000 (≈ 186000 µM)		
CC1(C)S[C@@H]2[C@H](NC(=O)[C@H](N)c3ccccc3)C(=O)N2[C@H]1C(=O)O [AMP, Ampicillin, reference compound]			n.e./ n.e.	n.e./ n.e.	n.e and n.e./ n.e.	n.e and n.e./ n.e.		n.e and n.e./ n.e.	
NC(=O)N1c2ccccc2C=Cc2ccccc21 [CBZ, Carbamazepine, reference compound]		1.1x10^-10 atm- m^3/mol		n.e./ n.e.	n.e and n.e./ n.e.	n.e and n.e./ n.e.	18 (≈ 76.2 µM)	n.e and n.e. / n.e.	Data from literature NIS IC50 (human NIS [6]; ref US-EPA, 2024): n.e.; Data from literature NIS IC50 (human NIS [6]; ref Wang et al., 2019): n.e.
CCC(Cc1c(I)cc(I)c(N)c1I)C(=O)O (stereo not drawn) [IOP, Iopanoic acid, reference compound]			n.e. / n.e.	n.e. / n.e.	n.e and n.e. / n.e.	n.e and n.e. / n.e.	348.3 (≈ 610 µM)	n.e and n.e. / n.e.	
